Data from BindingDB's records for patent US20260049068 (Bristol Myers Squibb, 2026).

Columns and labels:
[1] = biological target: Diacylglycerol kinase alpha (Homo sapiens, UniProt P23743); test: In Vitro DGK Inhibition Assay
Procedure: (§1) The DGKα (Full Length and Near Full Length) ADP Glo assays were performed using an extruded liposome prep at either 5% DAG or 10% DAG. The Enzymatic reactions were carried out in 50 mM MOPS pH 7.5, 100 mM NaCl, 10 mM MgCl2, 1 μM CaCl2, and 1 mM DTT (assay buffer). The lipid substrate concentrations were 1.9 mM PS, either 0.25 mM DAG (5% liposome prep) or 0.5 mM DAG (10% liposome prep), and 2.7 mM PC for the extruded liposome reactions. […] A 5 mL enzyme/substrate (substrate being the 5× or 10× liposome preparation) solution at 2× final reaction concentrations was prepared by combining 5 ml of the extruded liposome preparation with 10 nM (2× final) DGKα(Near Full Length) or DGKα(Full Length) prepared as described below) and incubated at room temperature for 10 minutes. Next, 1 μL of the 2× enzyme/substrate solution was added to wells containing the test compound and reactions were initiated with the addition of 1 μL 300 uM ATP. Substrate only was added to DMSO only wells for background measurements. The reactions were allowed to proceed for 1 hr, after which 2 μL Glo Reagent (Promega V9101) was added and incubated for 40 minutes. Next, 4 μL Kinase Detection Reagent was added and incubated for 30 minutes. Luminescence was recorded using an EnVision microplate reader. […] The compounds were evaluated at 11 concentrations to determine IC50.

[2] = biological target: T1, Diacylglycerol kinase alpha [9-727] (Homo sapiens, UniProt P23743); test: In Vitro DGK Inhibition Assay
T1 construct: 9-727
T1 sequence (P23743 whole entry): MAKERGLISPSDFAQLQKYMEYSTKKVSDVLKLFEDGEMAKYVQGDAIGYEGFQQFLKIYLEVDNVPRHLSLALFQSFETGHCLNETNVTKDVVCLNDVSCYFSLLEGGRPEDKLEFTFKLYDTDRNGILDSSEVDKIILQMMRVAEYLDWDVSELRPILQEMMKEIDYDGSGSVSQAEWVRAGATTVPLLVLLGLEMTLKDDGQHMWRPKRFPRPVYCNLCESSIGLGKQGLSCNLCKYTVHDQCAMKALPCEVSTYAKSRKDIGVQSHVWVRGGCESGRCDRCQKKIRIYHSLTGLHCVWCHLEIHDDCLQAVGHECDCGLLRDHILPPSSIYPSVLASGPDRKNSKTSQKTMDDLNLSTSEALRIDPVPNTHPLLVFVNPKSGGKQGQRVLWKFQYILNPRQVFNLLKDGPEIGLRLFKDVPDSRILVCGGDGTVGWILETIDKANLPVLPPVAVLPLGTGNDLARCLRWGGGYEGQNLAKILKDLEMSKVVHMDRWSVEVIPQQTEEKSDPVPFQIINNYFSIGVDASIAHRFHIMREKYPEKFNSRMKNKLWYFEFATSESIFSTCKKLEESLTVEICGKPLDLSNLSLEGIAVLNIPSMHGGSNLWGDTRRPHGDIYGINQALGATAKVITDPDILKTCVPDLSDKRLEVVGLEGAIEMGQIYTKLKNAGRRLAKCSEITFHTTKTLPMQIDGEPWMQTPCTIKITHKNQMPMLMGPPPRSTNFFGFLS
Procedure: as §1

Diacylglycerol kinase alpha, sequence (P23743 whole entry): as above

Row | Structure (SMILES) | IC50 [1] [µM] | IC50 [2] [µM]
1 | CC1CCC(N(C)Cc2nnnn2-c2cccc([N+](=O)[O-])c2)CC1 (centres undefined) [US20260049068, Example 2] | 2.7 | 1.2
2 | C=CCN(Cc1nnnn1-c1ccc(Cl)c(C#N)n1)C1CCCCC1 [US20260049068, Example 17] | 1.2 | 1.6
3 | CN(Cc1nnnn1-c1cc(C#N)cc([N+](=O)[O-])c1)C1CCCCC1 [US20260049068, Example 27] | – | 0.48
4 | CN(Cc1nnnn1-c1ccc(Cl)c([N+](=O)[O-])c1)C1CCCCC1 [US20260049068, Example 28] | 0.06 | 0.12
5 | CN(Cc1nnnn1-c1cccc([N+](=O)[O-])c1)C1CCOCC1 [US20260049068, Example 38] | 15 | –
6 | CN(Cc1nnnn1-c1cccc([N+](=O)[O-])c1)C1CCN(C(=O)OC(C)(C)C)C1 (centres undefined) [US20260049068, Example 39] | 35 | –

The next lines start with the values.

Row | IC50 [1] [µM] | IC50 [2] [µM] | Structure (SMILES)
7 | 55 | – | CN(Cc1nnnn1-c1cccc([N+](=O)[O-])c1)C1CCOC1 (centres undefined) [US20260049068, Example 40]
8 | 32 | – | CC(C)CN(C)Cc1nnnn1-c1cccc([N+](=O)[O-])c1 [US20260049068, Example 42]
9 | 180 | – | CN(Cc1nnnn1-c1cccc([N+](=O)[O-])c1)C1CC1 [US20260049068, Example 44]
10 | 120 | – | N#Cc1nc(-n2nnnc2CN(CC(O)c2ccccc2)C2CCCCC2)ccc1Cl (centres undefined) [US20260049068, Example 57]
11 | 60 | – | N#Cc1nc(-n2nnnc2CN(Cc2ccccc2)[C@@H]2CCCC[C@H]2O)ccc1Cl [US20260049068, Example 58]
